# Experimental data published in the supplement of paper PMC10307832.
# Key:
# Assay in all cases: relative viability (nuclei count vs DMSO), 5 days (fraction); higher = more cells survive
# Metformin + Luminespib = compound: CN(C)C(=N)NC(=N)N [Metformin] + CCNC(=O)c1noc(-c2cc(C(C)C)c(O)cc2O)c1-c1ccc(CN2CCOCC2)cc1 [Luminespib] (partner 0.01 µM)
# Method in brief: (§1)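 After 5 days of treatment, lung cancer cells in 1536-well plates were fixed and stained in a single step (final 0.05% Triton X-100, 1% formaldehyde, 1 ug/ml Hoechst) and their nuclei counted on 4× images. Treatment had been applied by pin tool the day after seeding as one drug alone or as a fixed anchor-drug dose with five library-drug doses (not always all listed) in √10 steps. Relative viability is the nuclei count of treated wells divided by that of vehicle wells, and values are medians of duplicate plates.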
# Metformin + Pictilisib = compound: CN(C)C(=N)NC(=N)N [Metformin] + CS(=O)(=O)N1CCN(Cc2cc3nc(-c4cccc5[nH]ncc45)nc(N4CCOCC4)c3s2)CC1 [Pictilisib] (partner 1 µM)
# Method in brief: as §1
# Apatinib + OSI-027 = compound: N#CC1(c2ccc(NC(=O)c3cccnc3NCc3ccncc3)cc2)CCCC1 [Apatinib] + COc1cccc2cc(-c3nc([C@H]4CC[C@H](C(=O)O)CC4)n4ncnc(N)c34)[nH]c12 [OSI-027] (partner 0.5 µM)
# Method in brief: as §1
# Apatinib + AZD7762 = compound: N#CC1(c2ccc(NC(=O)c3cccnc3NCc3ccncc3)cc2)CCCC1 [Apatinib] + NC(=O)Nc1cc(-c2cccc(F)c2)sc1C(=O)N[C@H]1CCCNC1 [AZD7762] (partner 0.2 µM)
# Method in brief: as §1
cell line,measurement,setting,value
NCI-H650,relative viability,Metformin + Luminespib; first compound 10 µM,0.953
same,relative viability,Metformin + Luminespib; first compound 31.62 µM,1.03
same,relative viability,Metformin + Luminespib; first compound 100 µM,1.06
same,relative viability,Metformin + Luminespib; first compound 316.23 µM,0.92
same,relative viability,Metformin + Luminespib; first compound 1000 µM,1.09
same,relative viability,Metformin + Pictilisib; first compound 10 µM,0.96
same,relative viability,Metformin + Pictilisib; first compound 31.62 µM,1.01
same,relative viability,Metformin + Pictilisib; first compound 100 µM,1.12
same,relative viability,Metformin + Pictilisib; first compound 316.23 µM,1.06
same,relative viability,Metformin + Pictilisib; first compound 1000 µM,0.978
same,relative viability,Apatinib + OSI-027; first compound 0.08 µM,0.493
same,relative viability,Apatinib + OSI-027; first compound 0.253 µM,0.491
same,relative viability,Apatinib + OSI-027; first compound 0.8 µM,0.446
same,relative viability,Apatinib + OSI-027; first compound 2.53 µM,0.381
same,relative viability,Apatinib + OSI-027; first compound 8 µM,0.388
same,relative viability,Apatinib + AZD7762; first compound 0.08 µM,0.906
same,relative viability,Apatinib + AZD7762; first compound 0.253 µM,1.05
same,relative viability,Apatinib + AZD7762; first compound 0.8 µM,1.12
same,relative viability,Apatinib + AZD7762; first compound 2.53 µM,0.743
same,relative viability,Apatinib + AZD7762; first compound 8 µM,0.694
NCI-H1975,relative viability,Metformin + Luminespib; first compound 10 µM,0.156
same,relative viability,Metformin + Luminespib; first compound 31.62 µM,0.122
same,relative viability,Metformin + Luminespib; first compound 100 µM,0.363
same,relative viability,Metformin + Luminespib; first compound 316.23 µM,0.335
same,relative viability,Metformin + Luminespib; first compound 1000 µM,0.336
same,relative viability,Metformin + Pictilisib; first compound 10 µM,0.285
same,relative viability,Metformin + Pictilisib; first compound 31.62 µM,0.327
same,relative viability,Metformin + Pictilisib; first compound 100 µM,0.306
same,relative viability,Metformin + Pictilisib; first compound 316.23 µM,0.314
same,relative viability,Metformin + Pictilisib; first compound 1000 µM,0.321
same,relative viability,Apatinib + OSI-027; first compound 0.08 µM,0.718
same,relative viability,Apatinib + OSI-027; first compound 0.253 µM,0.901
same,relative viability,Apatinib + OSI-027; first compound 0.8 µM,0.55
same,relative viability,Apatinib + OSI-027; first compound 2.53 µM,0.418
same,relative viability,Apatinib + OSI-027; first compound 8 µM,0.42
same,relative viability,Apatinib + AZD7762; first compound 0.253 µM,0.754
same,relative viability,Apatinib + AZD7762; first compound 0.8 µM,0.71
same,relative viability,Apatinib + AZD7762; first compound 2.53 µM,0.514
same,relative viability,Apatinib + AZD7762; first compound 8 µM,0.655
ChaGo-K-1,relative viability,Metformin + Luminespib; first compound 10 µM,0.599
same,relative viability,Metformin + Luminespib; first compound 31.62 µM,0.751
same,relative viability,Metformin + Luminespib; first compound 100 µM,0.67
same,relative viability,Metformin + Luminespib; first compound 316.23 µM,0.634
same,relative viability,Metformin + Luminespib; first compound 1000 µM,0.696
same,relative viability,Metformin + Pictilisib; first compound 10 µM,0.824
same,relative viability,Metformin + Pictilisib; first compound 31.62 µM,1.12
same,relative viability,Metformin + Pictilisib; first compound 100 µM,0.686
same,relative viability,Metformin + Pictilisib; first compound 316.23 µM,0.801
same,relative viability,Metformin + Pictilisib; first compound 1000 µM,0.906
same,relative viability,Apatinib + OSI-027; first compound 0.08 µM,0.628
same,relative viability,Apatinib + OSI-027; first compound 0.253 µM,0.616
same,relative viability,Apatinib + OSI-027; first compound 0.8 µM,0.491
same,relative viability,Apatinib + OSI-027; first compound 2.53 µM,0.455
same,relative viability,Apatinib + OSI-027; first compound 8 µM,0.493
same,relative viability,Apatinib + AZD7762; first compound 0.08 µM,0.913
same,relative viability,Apatinib + AZD7762; first compound 0.253 µM,0.853
same,relative viability,Apatinib + AZD7762; first compound 0.8 µM,0.776
same,relative viability,Apatinib + AZD7762; first compound 2.53 µM,0.711
same,relative viability,Apatinib + AZD7762; first compound 8 µM,0.617
COR-L 105,relative viability,Metformin + Luminespib; first compound 10 µM,0.85
same,relative viability,Metformin + Luminespib; first compound 31.62 µM,0.736
same,relative viability,Metformin + Luminespib; first compound 100 µM,0.749
same,relative viability,Metformin + Luminespib; first compound 316.23 µM,0.538
same,relative viability,Metformin + Luminespib; first compound 1000 µM,0.795
same,relative viability,Metformin + Pictilisib; first compound 10 µM,0.401
same,relative viability,Metformin + Pictilisib; first compound 31.62 µM,0.488
same,relative viability,Metformin + Pictilisib; first compound 100 µM,0.478
same,relative viability,Metformin + Pictilisib; first compound 316.23 µM,0.463
same,relative viability,Metformin + Pictilisib; first compound 1000 µM,0.333
same,relative viability,Apatinib + OSI-027; first compound 0.08 µM,0.775
same,relative viability,Apatinib + OSI-027; first compound 0.253 µM,0.806
same,relative viability,Apatinib + OSI-027; first compound 0.8 µM,0.619
same,relative viability,Apatinib + OSI-027; first compound 2.53 µM,0.582
same,relative viability,Apatinib + OSI-027; first compound 8 µM,0.491
A-427,relative viability,Metformin + Luminespib; first compound 10 µM,1.21
same,relative viability,Metformin + Luminespib; first compound 31.62 µM,0.972
same,relative viability,Metformin + Luminespib; first compound 100 µM,1.04
same,relative viability,Metformin + Luminespib; first compound 316.23 µM,0.952
same,relative viability,Metformin + Luminespib; first compound 1000 µM,0.91
same,relative viability,Metformin + Pictilisib; first compound 10 µM,0.79
same,relative viability,Metformin + Pictilisib; first compound 31.62 µM,0.896
same,relative viability,Metformin + Pictilisib; first compound 100 µM,0.713
same,relative viability,Metformin + Pictilisib; first compound 316.23 µM,0.68
same,relative viability,Metformin + Pictilisib; first compound 1000 µM,0.763
same,relative viability,Apatinib + OSI-027; first compound 0.08 µM,0.52
same,relative viability,Apatinib + OSI-027; first compound 0.253 µM,0.465
same,relative viability,Apatinib + OSI-027; first compound 0.8 µM,0.479
same,relative viability,Apatinib + OSI-027; first compound 2.53 µM,0.476
same,relative viability,Apatinib + OSI-027; first compound 8 µM,0.404
same,relative viability,Apatinib + AZD7762; first compound 0.08 µM,0.71
same,relative viability,Apatinib + AZD7762; first compound 0.253 µM,0.761
same,relative viability,Apatinib + AZD7762; first compound 0.8 µM,0.665
same,relative viability,Apatinib + AZD7762; first compound 2.53 µM,0.572
same,relative viability,Apatinib + AZD7762; first compound 8 µM,0.527
NCI-H2087,relative viability,Metformin + Luminespib; first compound 31.62 µM,0.293
same,relative viability,Metformin + Luminespib; first compound 100 µM,0.225
same,relative viability,Metformin + Luminespib; first compound 316.23 µM,0.223
same,relative viability,Metformin + Luminespib; first compound 1000 µM,0.157
same,relative viability,Metformin + Pictilisib; first compound 10 µM,0.909
same,relative viability,Metformin + Pictilisib; first compound 31.62 µM,1.01
same,relative viability,Metformin + Pictilisib; first compound 100 µM,0.772
same,relative viability,Metformin + Pictilisib; first compound 316.23 µM,0.782
same,relative viability,Metformin + Pictilisib; first compound 1000 µM,0.957
same,relative viability,Apatinib + OSI-027; first compound 0.08 µM,0.607
same,relative viability,Apatinib + OSI-027; first compound 0.253 µM,0.458
same,relative viability,Apatinib + OSI-027; first compound 0.8 µM,0.468
same,relative viability,Apatinib + OSI-027; first compound 2.53 µM,0.492
same,relative viability,Apatinib + OSI-027; first compound 8 µM,0.426
same,relative viability,Apatinib + AZD7762; first compound 0.08 µM,1.25
same,relative viability,Apatinib + AZD7762; first compound 0.253 µM,1.25
same,relative viability,Apatinib + AZD7762; first compound 0.8 µM,1.32
same,relative viability,Apatinib + AZD7762; first compound 2.53 µM,1.05
same,relative viability,Apatinib + AZD7762; first compound 8 µM,1.05
NCI-H358,relative viability,Metformin + Luminespib; first compound 10 µM,0.575
same,relative viability,Metformin + Luminespib; first compound 31.62 µM,0.677
same,relative viability,Metformin + Luminespib; first compound 100 µM,0.555
same,relative viability,Metformin + Luminespib; first compound 316.23 µM,0.211
same,relative viability,Metformin + Luminespib; first compound 1000 µM,0.364
same,relative viability,Metformin + Pictilisib; first compound 10 µM,0.356
same,relative viability,Metformin + Pictilisib; first compound 31.62 µM,0.424
same,relative viability,Metformin + Pictilisib; first compound 100 µM,0.44
same,relative viability,Metformin + Pictilisib; first compound 316.23 µM,0.332
same,relative viability,Metformin + Pictilisib; first compound 1000 µM,0.378
same,relative viability,Apatinib + OSI-027; first compound 0.08 µM,0.898
same,relative viability,Apatinib + OSI-027; first compound 0.253 µM,0.789
same,relative viability,Apatinib + OSI-027; first compound 0.8 µM,0.772
same,relative viability,Apatinib + OSI-027; first compound 2.53 µM,0.706
same,relative viability,Apatinib + OSI-027; first compound 8 µM,0.692
same,relative viability,Apatinib + AZD7762; first compound 0.08 µM,0.548
same,relative viability,Apatinib + AZD7762; first compound 0.253 µM,0.573
same,relative viability,Apatinib + AZD7762; first compound 0.8 µM,0.475
same,relative viability,Apatinib + AZD7762; first compound 2.53 µM,0.45
same,relative viability,Apatinib + AZD7762; first compound 8 µM,0.343
NCI-H647,relative viability,Metformin + Luminespib; first compound 10 µM,0.187
same,relative viability,Metformin + Luminespib; first compound 31.62 µM,0.154
same,relative viability,Metformin + Luminespib; first compound 100 µM,0.278
same,relative viability,Metformin + Luminespib; first compound 316.23 µM,0.16
same,relative viability,Metformin + Luminespib; first compound 1000 µM,0.113
same,relative viability,Metformin + Pictilisib; first compound 10 µM,0.469
same,relative viability,Metformin + Pictilisib; first compound 31.62 µM,0.535
same,relative viability,Metformin + Pictilisib; first compound 100 µM,0.479
same,relative viability,Metformin + Pictilisib; first compound 316.23 µM,0.441
same,relative viability,Metformin + Pictilisib; first compound 1000 µM,0.292
same,relative viability,Apatinib + OSI-027; first compound 0.08 µM,0.77
same,relative viability,Apatinib + OSI-027; first compound 0.253 µM,0.619
same,relative viability,Apatinib + OSI-027; first compound 0.8 µM,0.576
same,relative viability,Apatinib + OSI-027; first compound 2.53 µM,0.593
same,relative viability,Apatinib + OSI-027; first compound 8 µM,0.528
same,relative viability,Apatinib + AZD7762; first compound 0.253 µM,0.482
same,relative viability,Apatinib + AZD7762; first compound 0.8 µM,0.372
same,relative viability,Apatinib + AZD7762; first compound 2.53 µM,0.341
same,relative viability,Apatinib + AZD7762; first compound 8 µM,0.344
